Values after ≈ are worked out from the molar mass of the structure shown.
How the values were obtained:
[1] = Cytotoxicity against African green monkey Vero cells assessed as reduction cell survival rate after 72 hrs by CCK8 assay; type: toxicity, cell-based, Chlorocebus sabaeus
[2] = system: Mycobacterium tuberculosis; test: Antitubercular activity against Mycobacterium tuberculosis H37Ra transfected with TYOK plasmid assessed as relative light units after 4 days by selectable marker-free autoluminescent assay; type: functional; settings: 96 h
[3] = Solubility of the compound; type: physicochemical
[4] = system: Mycobacterium tuberculosis; test: In vivo anti-tubercular activity against Mycobacterium tuberculosis H37Ra transfected with TYOK plasmid infected in BALB/c mouse assessed as increase in ratio of RLU on day 3 to RLU on day 1 at 10 mg/kg/day administered QD for 3 days relative to control; type: functional
[5] = Cmax in Sprague-Dawley rat at 10 mg/kg, administered through oral gavage by LC/MS analysis; type: ADME, organism-based; parameters: dose 10 mg/kg, route oral; settings: in vivo
[6] = system: Mycobacterium tuberculosis; test: In vivo anti-tubercular activity against Mycobacterium tuberculosis H37Ra transfected with TYOK plasmid infected in BALB/c mouse assessed as ratio of RLU on day 3 to RLU on day 1 at 10 mg/kg/day administered QD for 3 days; type: functional
[7] = Half life in Sprague-Dawley rat at 10 mg/kg, administered through oral gavage by LC/MS analysis; type: ADME, organism-based; settings: in vivo
[8] = AUC (0 to infinity) in Sprague-Dawley rat at 2 mg/kg, iv by LC/MS analysis; type: ADME, organism-based; parameters: dose 2 mg/kg, time infinity, route intravenous; settings: in vivo
[9] = Half life in Sprague-Dawley rat at 2 mg/kg, iv by LC/MS analysis; type: ADME, organism-based; settings: in vivo
[10] = AUC (0 to infinity) in Sprague-Dawley rat at 10 mg/kg, administered through oral gavage by LC/MS analysis; type: ADME, organism-based; parameters: dose 10 mg/kg, time infinity, route oral; settings: in vivo
[11] = Oral bioavailability in Sprague-Dawley rat at 10 mg/kg by LC/MS analysis; type: ADME, organism-based; settings: in vivo
[12] = system: Mycobacterium tuberculosis; test: In vivo anti-tubercular activity against Mycobacterium tuberculosis H37Ra transfected with TYOK plasmid infected in BALB/c mouse assessed as ratio of RLU on day 3 to RLU on day 1 at 40 mg/kg/day administered QD for 3 days; type: functional
[13] = Tmax in Sprague-Dawley rat at 2 mg/kg, iv by LC/MS analysis; type: ADME, organism-based; settings: in vivo
[14] = Clearance in Sprague-Dawley rat at 2 mg/kg, iv by LC/MS analysis; type: ADME, organism-based; settings: in vivo
[15] = system: Mycobacterium tuberculosis; test: In vivo anti-tubercular activity against Mycobacterium tuberculosis H37Ra transfected with TYOK plasmid infected in BALB/c mouse assessed as decrease in ratio of RLU on day 3 to RLU on day 1 administered QD for 3 days; type: functional, organism-based
[16] = Clearance in Sprague-Dawley rat at 10 mg/kg, administered through oral gavage by LC/MS analysis; type: ADME, organism-based; settings: in vivo
[17] = system: Mycobacterium tuberculosis; test: In vivo anti-tubercular activity against Mycobacterium tuberculosis H37Ra transfected with TYOK plasmid infected in BALB/c mouse assessed as ratio of RLU on day 3 to RLU on day 1 at 2.5 mg/kg/day administered QD for 3 days; type: functional
[18] = Tmax in Sprague-Dawley rat at 10 mg/kg, administered through oral gavage by LC/MS analysis; type: ADME, organism-based; settings: in vivo
[19] = Cmax in Sprague-Dawley rat at 2 mg/kg, iv by LC/MS analysis; type: ADME, organism-based; parameters: dose 2 mg/kg, route intravenous; settings: in vivo

SMILES	IC50 at 72 h [1]	MIC [2]	further results
Cc1nn2ccsc2c1C(=O)NCc1ccc(N2CCC(c3ccc(OC(F)(F)F)cc3)CC2)cc1	> 100 µM	0.3 µg/mL (≈ 0.583 µM)	
Cc1nn2ccc(=O)[nH]c2c1C(=O)NCc1ccc(N2CCC(c3ccc(OC(F)(F)F)cc3)CC2)cc1		> 30 µg/mL	
Cc1nc2scc(C)n2c1C(=O)NCc1ccc(N2CCC(c3ccc(OC(F)(F)F)cc3)CC2)cc1	> 100 µM	1 µg/mL (≈ 1.89 µM)	solubility [3]: Insoluble
Cc1nc2sccn2c1C(=O)NCc1ccc(N2CCC(c3ccc(OC(F)(F)F)cc3)CC2)cc1	> 100 µM	0.03 µg/mL (≈ 0.0583 µM)	
Cc1ccn2nc(C)c(C(=O)NCc3ccc(N4CCC(c5ccc(OC(F)(F)F)cc5)CC4)cc3)c2n1		> 30 µg/mL	
Cc1nn2c(C)csc2c1C(=O)NCc1ccc(N2CCC(c3ccc(OC(F)(F)F)cc3)CC2)cc1	> 100 µM	0.1 µg/mL (≈ 0.189 µM)	
Cc1ccc2[nH]c(C)c(C(=O)NCc3ccc(N4CCC(c5ccc(OC(F)(F)F)cc5)CC4)cc3)c2c1		10 µg/mL (≈ 19.2 µM)	
NNC(=O)c1ccncc1 [ISONIAZID]		0.1 µg/mL (≈ 0.729 µM)	fold change (FC) [4]: 1.25
Cc1cn2nc(C)c(C(=O)NCc3ccc(N4CCC(c5ccc(OC(F)(F)F)cc5)CC4)cc3)c2s1	> 100 µM	0.03 µg/mL (≈ 0.0568 µM)	Cmax [5]: 373 ng/mL; Ratio [6]: 0.91; half-life [7]: 13.4 h; AUC(0-inf) [8]: 4110 ng·h/mL; half-life [9]: 14.1 h; AUC(0-inf) [10]: 8560 ng·h/mL; bioavailability [11]: 41.7%; Ratio [12]: 0.36; Tmax [13]: 4.98 min; clearance [14]: 8.17 mL/min/kg; Activity [15]: Dose-dependent effect; CL/F [16]: 20.2 mL/min/kg; Ratio [17]: 1.05; Tmax [18]: 5 h; Cmax [19]: 1720 ng/mL
Cc1ccc2oc(C)c(C(=O)NCc3ccc(N4CCC(c5ccc(OC(F)(F)F)cc5)CC4)cc3)c2c1		> 30 µg/mL	
Cc1cn2c(C(=O)NCc3ccc(N4CCC(c5ccc(OC(F)(F)F)cc5)CC4)cc3)c(C)nc2s1	> 100 µM	0.01 µg/mL (≈ 0.0189 µM)	solubility [3]: Insoluble
CO[C@H]1/C=C/O[C@@]2(C)Oc3c(C)c(O)c4c(O)c(c(/C=N/N5CCN(C)CC5)c(O)c4c3C2=O)NC(=O)/C(C)=C\C=C\[C@H](C)[C@H](O)[C@@H](C)[C@@H](O)[C@@H](C)[C@H](OC(C)=O)[C@@H]1C [RIFAMPIN]		0.003 µg/mL (≈ 0.00365 µM)	
CCc1nc2ccc(Cl)cn2c1C(=O)NCc1ccc(N2CCC(c3ccc(OC(F)(F)F)cc3)CC2)cc1 [TELACEBEC]		0.003 µg/mL (≈ 0.00539 µM)	
